Results as given in the supplement of paper PMC10307832.

Key:
Assay in all cases: relative viability (nuclei count vs DMSO), 5 days (fraction); higher = more cells survive
IU1-47 + Foretinib = compound: CC1=CC(=C(N1C2=CC=C(C=C2)Cl)C)C(=O)CN3CCCCC3 [IU1-47] + COc1cc2c(Oc3ccc(NC(=O)C4(C(=O)Nc5ccc(F)cc5)CC4)cc3F)ccnc2cc1OCCCN1CCOCC1 [Foretinib] (partner 0.25 µM)
In short: (§1)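 After 5 days of treatment, lung cancer cells in 1536-well plates were fixed and stained in a single step (final 0.05% Triton X-100, 1% formaldehyde, 1 ug/ml Hoechst) and their nuclei counted on 4× images. Treatment had been applied by pin tool the day after seeding as one drug alone or as a fixed anchor-drug dose with five library-drug doses (not always all listed) in √10 steps. Relative viability is the nuclei count of treated wells divided by that of vehicle wells, and values are medians of duplicate plates.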

FG-4592 + Navitoclax = compound: Cc1nc(C(=O)NCC(=O)O)c(O)c2ccc(Oc3ccccc3)cc12 [FG-4592] + CC1(C)CCC(c2ccc(Cl)cc2)=C(CN2CCN(c3ccc(C(=O)NS(=O)(=O)c4ccc(N[C@H](CCN5CCOCC5)CSc5ccccc5)c(S(=O)(=O)C(F)(F)F)c4)cc3)CC2)C1 [Navitoclax] (partner 0.5 µM)
In short: as §1

FG-4592 + Trametinib = compound: Cc1nc(C(=O)NCC(=O)O)c(O)c2ccc(Oc3ccccc3)cc12 [FG-4592] + CC(=O)Nc1cccc(-n2c(=O)n(C3CC3)c(=O)c3c(Nc4ccc(I)cc4F)n(C)c(=O)c(C)c32)c1 [Trametinib] (partner 0.02 µM)
In short: as §1

IU1-47 + Vorinostat = compound: CC1=CC(=C(N1C2=CC=C(C=C2)Cl)C)C(=O)CN3CCCCC3 [IU1-47] + O=C(CCCCCCC(=O)Nc1ccccc1)NO [Vorinostat] (partner 1 µM)
In short: as §1

Cell Line | relative viability (IU1-47 + Foretinib; first compound 0.08 µM) | relative viability (IU1-47 + Foretinib; first compound 0.253 µM) | relative viability (IU1-47 + Foretinib; first compound 0.8 µM) | relative viability (IU1-47 + Foretinib; first compound 2.53 µM) | relative viability (IU1-47 + Foretinib; first compound 8 µM) | relative viability (FG-4592 + Navitoclax; first compound 0.08 µM) | relative viability (FG-4592 + Navitoclax; first compound 0.253 µM) | relative viability (FG-4592 + Navitoclax; first compound 0.8 µM) | relative viability (FG-4592 + Navitoclax; first compound 2.53 µM) | relative viability (FG-4592 + Navitoclax; first compound 8 µM) | relative viability (FG-4592 + Trametinib; first compound 0.08 µM) | relative viability (FG-4592 + Trametinib; first compound 0.253 µM) | relative viability (FG-4592 + Trametinib; first compound 2.53 µM) | relative viability (FG-4592 + Trametinib; first compound 8 µM) | relative viability (IU1-47 + Vorinostat; first compound 0.08 µM) | relative viability (IU1-47 + Vorinostat; first compound 0.253 µM) | relative viability (IU1-47 + Vorinostat; first compound 0.8 µM) | relative viability (IU1-47 + Vorinostat; first compound 2.53 µM) | relative viability (IU1-47 + Vorinostat; first compound 8 µM) | relative viability (FG-4592 + Trametinib; first compound 0.8 µM)
PC-3 [JPC-3] | 1.13 | 1.11 | 1.12 | 1.08 | 1.05 | 0.778 | 0.823 | 0.829 | 0.875 | 0.859 | 0.773 | 0.601 | 0.72 | 0.844 | 0.857 | 1.04 | 0.772 | 0.691 | 0.972 | 
PC-14 | 1.07 | 1.03 | 0.954 | 0.959 | 0.907 | 1.01 | 1.06 | 1.08 | 1.01 | 1.03 | 0.708 | 0.717 | 0.833 | 0.496 | 0.757 | 0.756 | 0.734 | 0.49 | 0.573 | 0.71
RERF-LC-KJ | 0.877 | 0.918 | 0.922 | 0.868 | 0.893 | 0.87 | 0.691 | 1.06 | 1.07 | 0.622 | 0.841 | 0.848 | 0.876 | 0.857 | 0.743 | 0.749 | 0.749 | 0.604 | 0.605 | 0.763
SK-LU-1 | 0.855 | 0.752 | 0.879 | 0.852 | 0.868 | 0.72 | 0.554 | 0.959 |  | 0.777 | 0.402 | 0.395 | 0.422 | 0.379 | 0.804 | 0.818 | 0.768 | 0.815 | 0.585 | 0.461
SK-MES-1 | 0.999 | 1.05 | 0.838 | 0.844 | 0.921 | 1.15 | 1.18 | 1.32 | 1.25 | 1.39 | 0.604 | 0.515 | 0.623 | 0.571 | 1.09 | 1.15 | 1.26 | 1.24 | 1.03 | 0.521
SW 1573 | 1.03 | 0.965 | 1.11 | 0.749 | 1.02 | 0.771 | 0.933 | 1.02 | 0.937 | 0.803 | 0.611 | 0.62 | 0.531 | 0.391 | 0.736 | 0.732 | 0.779 | 0.454 | 0.792 | 0.616
